Assay results: patent US12459951B2, “Compounds that interact with RAS superfamily proteins for treatment of cancers, inflammatory diseases, rasopathies, and fibrotic disease” (SHY Therapeutics, LLC, priority 2022, dated 2025)

Assays:
Akt phosphorylation = test: Akt Phosphorylation Assay (western blot), Panc-1; format: cell-based, human; conditions: at 10 μM, * = activation
Method in brief: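 Panc-1 (KRas G12D) cells were treated with compound at 10 μM final (0.3% DMSO) for 6 h at 37 °C, or with serial dilutions for IC50. Cells were either serum-starved overnight in 0.5% FBS and then stimulated with 1.5 ng/ml EGF for 15 min, or kept in 10% FBS without stimulation. Akt Ser473 phosphorylation in lysates was read by western blot.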

KRas Q61H mutant = test: Ras GTP Binding Domain Inhibition Assay (Ras Superfamily Assay); conditions: 20 μM compound; for KRas Q61H mutant + SOS: % inh.: with SOS; for KRas Q61H mutant: % inh.: without SOS
Method in brief: (§1)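 Ni-plate capture of His-tagged protein (10-30 μg/mL, o/n 4° C); cpd 20 μM or dilution series, 1% DMSO, 3 h RT ± Sos 556-1049 last h; 100 nM Cy-labelled GTP 45 min RT; 3× wash; fluorescence read.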

KRas G12D mutant = test: as above; conditions: 20 μM compound; for KRas G12D mutant + SOS: % inh.: with SOS; for KRas G12D mutant: % inh.: without SOS
Method in brief: as §1

KRas wild type = test: as above; conditions: 20 μM compound; for KRas wild type + SOS: % inh.: with SOS; for KRas wild type: % inh.: without SOS
Method in brief: as §1

Rho-A = target: T1, Rho-A (Homo sapiens, UniProt P61586); test: as above; conditions: read-out: Rho-A: % inh..
T1 construct: made in house
T1 sequence (P61586 whole entry): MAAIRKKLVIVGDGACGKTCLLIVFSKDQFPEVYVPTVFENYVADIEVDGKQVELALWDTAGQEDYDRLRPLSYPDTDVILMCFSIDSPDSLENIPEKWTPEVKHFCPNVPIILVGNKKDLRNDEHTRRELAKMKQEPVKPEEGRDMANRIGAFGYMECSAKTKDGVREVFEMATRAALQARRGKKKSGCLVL
Method in brief: as §1

KRas G12C mutant = test: as above; conditions: 20 μM compound; for KRas G12C mutant + SOS: % inh.: with SOS; for KRas G12C mutant: % inh.: without SOS
Method in brief: as §1

Rac-1 = target: T2, Rac-1 (Homo sapiens, UniProt P63000); test: as above; conditions: read-out: Rac-1: % inh.
T2 construct: made in house
Method in brief: as §1

| Compound | % inh of Akt phosphorylation in Panc-1 (Akt phosphorylation) | KRas Q61H mutant + SOS: % inh. (KRas Q61H mutant) | KRas Q61H mutant: % inh. (KRas Q61H mutant) | KRas G12D mutant + SOS: % inh. (KRas G12D mutant) | KRas G12D mutant: % inh. (KRas G12D mutant) | KRas wild type + SOS: % inh. (KRas wild type) | KRas wild type: % inh. (KRas wild type) | inhibition at 20 µM (Rho-A) | KRas G12C mutant + SOS: % inh. (KRas G12C mutant) | KRas G12C mutant: % inh. (KRas G12C mutant) | inhibition at 20 µM (Rac-1) |
| --- | --- | --- | --- | --- | --- | --- | --- | --- | --- | --- | --- |
| COc1cccc(-c2cn3nc(-c4nccn4C)nc(N[C@H]4C[C@H](OC)C4)c3c2-c2ccn(C)n2)c1F [Compound 47, 6-(2-Fluoro-3-methoxyphenyl)-N-((1r,3r)-3-methoxycyclobutyl)-2-(1-methyl-1H-imidazol-2-yl)-5-(1-methyl-1H-pyrazol-3-yl)pyrrolo[2,1-f][1,2,4]triazin-4-amine] | C* (46-84% activation) | A (A = 1-25% inhibition) | A (A = 1-25% inhibition) | A (A = 1-25% inhibition) | A (A = 1-25% inhibition) | 0 (0 = 0% inhibition) | 0 (0 = 0% inhibition) | 1 to 25% | 0 (0 = 0% inhibition) | 0 (0 = 0% inhibition) | 0% |
| Cc1c(-c2ccn(C(C)C)n2)cn2nc(-c3nccn3C)nc(Nc3cnccn3)c12 [Compound 62, 6-(1-Isopropyl-1H-pyrazol-3-yl)-5-methyl-2-(1-methyl-1H-imidazol-2-yl)-N-(pyrazin-2-yl)pyrrolo[2,1-f][1,2,4]triazin-4-amine] | D* (85-100% activation) | A (A = 1-25% inhibition) | A (A = 1-25% inhibition) | A (A = 1-25% inhibition) | B (B = 26-49% inhibition) | 0 (0 = 0% inhibition) | A (A = 1-25% inhibition) | 26 to 49% | 0 (0 = 0% inhibition) | A (A = 1-25% inhibition) | 50 to 75% |
| COc1cccc(-c2cn3nc(-c4nccn4C)nc(N[C@@H]4CC[C@@H](OC)C4)c3c2-c2ccccn2)c1F (racemic) [Compound 46, rac 6-(2-Fluoro-3-methoxyphenyl)-N-((1R,3R)-3-methoxycyclopentyl)-2-(1-methyl-1H-imidazol-2-yl)-5-(pyridin-2-yl)pyrrolo[2,1-f][1,2,4]triazin-4-amine] | 0 (0% inhibition) | D (D = 76-100% inhibition) | D (D = 76-100% inhibition) | A (A = 1-25% inhibition) | B (B = 26-49% inhibition) | A (A = 1-25% inhibition) | A (A = 1-25% inhibition) | 26 to 49% | A (A = 1-25% inhibition) | B (B = 26-49% inhibition) | 50 to 75% |
| Cc1c(-c2ccn(C(C)C)n2)cn2nc(-c3nccn3C)nc(Nc3nnco3)c12 [Compound 59, N-(6-(1-Isopropyl-1H-pyrazol-3-yl)-5-methyl-2-(1-methyl-1H-imidazol-2-yl)pyrrolo[2,1-f][1,2,4]triazin-4-yl)-1,3,4-oxadiazol-2-amine] | C* (46-84% activation) | D (D = 76-100% inhibition) | D (D = 76-100% inhibition) | C (C = 50-75% inhibition) | D (D = 76-100% inhibition) | C (C = 50-75% inhibition) | C (C = 50-75% inhibition) | 76 to 100% | B (B = 26-49% inhibition) | C (C = 50-75% inhibition) | 76 to 100% |
| Cc1c(-c2ccn(C(C)C)n2)cn2nc(-c3nccn3C)nc(Nc3ccn(C)n3)c12 [Compound 61, 6-(1-Isopropyl-1H-pyrazol-3-yl)-5-methyl-2-(1-methyl-1H-imidazol-2-yl)-N-(1-methyl-1H-pyrazol-3-yl)pyrrolo[2,1-f][1,2,4]triazin-4-amine] | C* (46-84% activation) | D (D = 76-100% inhibition) | D (D = 76-100% inhibition) | D (D = 76-100% inhibition) | D (D = 76-100% inhibition) | D (D = 76-100% inhibition) | D (D = 76-100% inhibition) | 76 to 100% | D (D = 76-100% inhibition) | D (D = 76-100% inhibition) | 76 to 100% |
| Cc1c(-c2ccn(C(C)C)n2)cn2nc(-c3nccn3C)nc(Nc3cc(C4CC4)no3)c12 [Compound 69, 3-Cyclopropyl-N-(6-(1-isopropyl-1H-pyrazol-3-yl)-5-methyl-2-(1-methyl-1H-imidazol-2-yl)pyrrolo[2,1-f][1,2,4]triazin-4-yl)isoxazol-5-amine] | D* (85-100% activation) | 0 (0 = 0% inhibition) | A (A = 1-25% inhibition) | A (A = 1-25% inhibition) | A (A = 1-25% inhibition) | 0 (0 = 0% inhibition) | A (A = 1-25% inhibition) | 1 to 25% | 0 (0 = 0% inhibition) | A (A = 1-25% inhibition) | 1 to 25% |
